Measured values as given in patent publication US20160137630A1, “INDUCTION OF GATA2 BY HDAC1 AND HDAC2 INHIBITORS” (ACETYLON PHARMACEUTICALS, INC., priority 2014, published 2016).
Several values for one entry are separate records, joined by “and”; a condition that tells them apart may be missing. Identical values can stand only once. Like-named read-outs stand apart in the source and are kept apart here.

How the values were obtained:
[1] = target: HDAC2 (Homo sapiens, UniProt Q92769); experiment: in vitro biochemical HDAC inhibition assay; details: read-out: IC50 HDAC2
[2] = target: HDAC3 (Homo sapiens, UniProt O15379); experiment: in vitro biochemical HDAC inhibition assay; details: for IC50: read-out: IC50 HDAC3
[3] = target: HDAC1 (Homo sapiens, UniProt Q13547); experiment: in vitro biochemical HDAC inhibition assay; details: read-out: IC50 HDAC1
[4] = test system: Gata2 mRNA; experiment: induction of Gata2 mRNA in erythroid progenitors by HDAC1,2 inhibitors; further: test concentration or dose not given here; assay type: cell-based, human; details: erythroid progenitors differentiated 3 days with compound; FIG. 2A-C
Excerpt: Human bone marrow derived CD34+ cells were expanded for 7 days as described by Sankaran et al., Science, vol. 322(5909), pp. 1839-42 (2008). Cells were then differentiated, in the presence of the indicated compound (i.e., Compounds 001, Compound Y, Compound 2005, Compound 2004, Compound 2003), for 3 days in media supporting erythropoiesis (Hu et al., “Isolation and functional characterization of human erythroblasts at distinct stages: implications for understanding of normal and disordered erythropoiesis in vivo”, Blood, vol. 121(16), pp. 3246-53 ([…])). FIG. 2A, FIG. 2B, and FIG. 2C each represents an experimental series performed on different days and with different donor cells.

Sequence of HDAC1 (Q13547 whole entry): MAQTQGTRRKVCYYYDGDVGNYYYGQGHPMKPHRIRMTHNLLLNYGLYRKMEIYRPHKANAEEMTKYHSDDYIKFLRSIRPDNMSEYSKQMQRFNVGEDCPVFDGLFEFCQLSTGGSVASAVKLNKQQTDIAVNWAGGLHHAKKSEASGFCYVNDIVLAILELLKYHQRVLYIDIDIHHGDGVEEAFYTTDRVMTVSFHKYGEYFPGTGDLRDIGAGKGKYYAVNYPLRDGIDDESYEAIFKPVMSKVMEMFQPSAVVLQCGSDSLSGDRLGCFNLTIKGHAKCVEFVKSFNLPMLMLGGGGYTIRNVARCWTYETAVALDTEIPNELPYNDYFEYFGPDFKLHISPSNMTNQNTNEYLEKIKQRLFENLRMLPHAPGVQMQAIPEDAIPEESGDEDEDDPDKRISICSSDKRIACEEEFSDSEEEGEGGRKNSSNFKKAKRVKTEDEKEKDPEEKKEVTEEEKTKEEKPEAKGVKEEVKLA
Sequence of HDAC2 (Q92769 whole entry): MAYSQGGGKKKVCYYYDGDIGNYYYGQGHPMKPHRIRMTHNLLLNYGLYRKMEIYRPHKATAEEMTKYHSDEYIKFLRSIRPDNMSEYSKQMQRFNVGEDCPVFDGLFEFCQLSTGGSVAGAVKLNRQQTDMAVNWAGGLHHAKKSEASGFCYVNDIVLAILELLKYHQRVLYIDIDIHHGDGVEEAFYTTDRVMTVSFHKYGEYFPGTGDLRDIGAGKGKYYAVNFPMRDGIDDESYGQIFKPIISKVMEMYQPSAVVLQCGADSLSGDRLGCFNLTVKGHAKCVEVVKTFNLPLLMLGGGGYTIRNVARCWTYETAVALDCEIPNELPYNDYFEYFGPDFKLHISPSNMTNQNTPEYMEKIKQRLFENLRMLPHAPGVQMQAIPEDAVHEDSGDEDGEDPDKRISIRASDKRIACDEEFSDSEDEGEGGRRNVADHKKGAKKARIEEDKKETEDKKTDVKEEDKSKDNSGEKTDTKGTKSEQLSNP
Sequence of HDAC3 (O15379 whole entry): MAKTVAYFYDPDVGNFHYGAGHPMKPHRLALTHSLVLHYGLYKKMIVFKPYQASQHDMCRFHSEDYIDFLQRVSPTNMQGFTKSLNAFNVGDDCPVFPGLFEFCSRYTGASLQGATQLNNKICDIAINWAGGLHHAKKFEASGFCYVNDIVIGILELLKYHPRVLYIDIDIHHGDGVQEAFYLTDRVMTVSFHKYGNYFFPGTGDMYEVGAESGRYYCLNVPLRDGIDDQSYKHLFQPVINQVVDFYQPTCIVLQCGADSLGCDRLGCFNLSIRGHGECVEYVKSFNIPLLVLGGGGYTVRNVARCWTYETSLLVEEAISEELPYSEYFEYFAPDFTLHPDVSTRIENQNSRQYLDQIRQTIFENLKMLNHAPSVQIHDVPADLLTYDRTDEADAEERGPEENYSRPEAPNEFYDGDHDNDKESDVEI
Sequence of HDAC3 (Q9Y618 395-489 partner limits assumed): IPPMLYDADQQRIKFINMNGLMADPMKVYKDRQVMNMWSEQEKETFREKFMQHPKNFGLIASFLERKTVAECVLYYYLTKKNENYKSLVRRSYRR

Row | Structure (SMILES) | IC50 ([1]; Table 2) | IC50 ([2]; Table 2) | IC50 ([3]; Table 2) | Gata2 mRNA [4] | IC50 ([1]; Table 4) | IC50 ([2]; Table 4) | IC50 ([3]; Table 4) | IC50 HDAC3 ([2]; Table 2)
1 | Nc1cc(-c2ccccc2)sc1NC(=O)c1cnc2cc(N3CCNCC3)ccc2c1 [N-(3-amino-5-phenylthiophen-2-yl)-7-(piperazin-1-yl)quinoline-3-carboxamide] | > 2000 nM | > 2000 nM | > 2000 nM | – | – | – | – | –
2 | COCCNc1ccc2cc(C(=O)Nc3cc(-c4ccccc4)ccc3N)cnc2c1C1CC1 [N-(4-amino-[1,1′-biphenyl]-3-yl)-8-cyclopropyl-7-((2-methoxyethyl)amino)quinoline-3-carboxamide] | 301 nM | > 2000 nM | – | – | – | – | – | –
3 | Nc1cnc(-c2ccccc2)cc1NC(=O)c1cnc2cc(N3CCNCC3)ccc2c1 [N-(5-amino-2-phenylpyridin-4-yl)-7-(piperazin-1-yl)quinoline-3-carboxamide] | 1190 nM and 1880 nM | – | 1230 nM | – | – | – | – | –
4 | Nc1ccccc1NC(=O)c1ccc2nc(N3CCNCC3)ccc2c1 [N-(2-aminophenyl)-2-(piperazin-1-yl)quinoline-6-carboxamide] | 624 nM | 104 nM | > 2000 nM | – | – | – | – | –
5 | Nc1sc(-c2ccccc2)cc1NC(=O)c1cnc2cc(N3CCNCC3)ccc2c1 [N-(2-amino-5-phenylthiophen-3-yl)-7-(piperazin-1-yl)quinoline-3-carboxamide] | 193 nM | 171 nM | 1210 nM | – | – | – | – | –
6 | CN1CCN(CCn2ccc3cc(C(=O)Nc4cc(-c5ccccc5)ccc4N)ccc32)CC1 [N-(4-amino-[1,1′-biphenyl]-3-yl)-1-(2-(4-methylpiperazin-1-yl)ethyl)-1H-indole-5-carboxamide] | 11 nM | 175 nM | 7.1 nM | – | – | – | – | –
7 | Nc1ccc(-c2ccccc2)cc1NC(=O)c1cnc2c(N3CCNCC3)c(C3CC3)ccc2c1 [N-(4-amino-[1,1′-biphenyl]-3-yl)-7-cyclopropyl-8-(piperazin-1-yl)quinoline-3-carboxamide] | 56 nM | 257 nM | 103 nM | – | – | – | – | –
8 | Nc1ccc(-c2ccccc2)cc1NC(=O)c1cnc2c(ccn2CCN2CCOCC2)c1 [N-(4-amino-[1,1′-biphenyl]-3-yl)-1-(2-morpholinoethyl)-1H-pyrrolo[2,3-b]pyridine-5-carboxamide] | 31 nM | 373 nM | 6.8 nM | – | – | – | – | –
9 | COCCN(C)c1cc2ncc(C(=O)Nc3cc(-c4ccccc4)ccc3N)cc2cc1C1CC1 [N-(4-amino-[1,1′-biphenyl]-3-yl)-6-cyclopropyl-7-((2-methoxyethyl)(methyl)amino)quinoline-3-carboxamide] | 1220 nM | > 2000 nM | > 2000 nM | – | – | – | – | –
10 | Nc1ccc(-c2ccncc2)cc1NC(=O)c1ccc2c(c1)cc(C1CC1)n2CCN1CCOCC1 [Compound Y] | – | – | – | induction of Gata2 mRNA | – | – | – | –
11 | Nc1ccc(-c2cccs2)cc1NC(=O)/C=C/c1ccc(N2CCNCC2)c(C2CC2)c1 [Compound 2002] | – | – | – | induction of Gata2 mRNA | 21.9 nM | 136 nM | 14 nM | –
12 | Nc1ccc(-c2ccccc2)cc1NC(=O)c1ccc2c(c1)c(C1CC1)cn2CCN1CCOCC1 [N-(4-amino-[1,1′-biphenyl]-3-yl)-3-cyclopropyl-1-(2-morpholinoethyl)-1H-indole-5-carboxamide] | 681 nM | 1900 nM | > 2000 nM | – | – | – | – | –
13 | Nc1ccc(-c2cccs2)cc1NC(=O)c1cnc2c(C3CC3)c(N3CCNCC3)ccc2c1 [N-(2-amino-5-(thiophen-2-yl)phenyl)-8-cyclopropyl-7-(piperazin-1-yl)quinoline-3-carboxamide] | 14 nM | 99 nM | 3.1 nM | – | – | – | – | –
14 | Nc1ccc(-c2ccccc2)cc1NC(=O)c1cnc2c(C3CC3)c(N3CCOCC3)ccc2c1 [N-(4-amino-[1,1′-biphenyl]-3-yl)-8-cyclopropyl-7-morpholinoquinoline-3-carboxamide] | 799 nM | > 2000 nM | 295 nM | – | – | – | – | –
15 | COCCN(C)c1cc2ncc(C(=O)Nc3cc(-c4cccs4)ccc3N)cc2cc1C1CC1 [N-(2-amino-5-(thiophen-2-yl)phenyl)-6-cyclopropyl-7-((2-methoxyethyl)(methyl)amino)quinoline-3-carboxamide] | 667 nM | > 2000 nM | 944 nM | – | – | – | – | –
16 | COCCNc1cc2ncc(C(=O)Nc3cc(-c4cccs4)ccc3N)cc2cc1C1CC1 [N-(2-amino-5-(thiophen-2-yl)phenyl)-6-cyclopropyl-7-((2-methoxyethyl)amino)quinoline-3-carboxamide] | 243 nM | 1550 nM | 89 nM | – | – | – | – | –
17 | Nc1ccc(-c2cccs2)cc1NC(=O)c1cnc(NC2CCN(C(=O)N3CCOCC3)CC2)nc1 [Compound 2007] | – | – | – | induction of Gata2 mRNA | 55.5 nM | 284 nM | 14.9 nM | –

Row | Structure (SMILES) | IC50 ([1]; Table 2) | IC50 ([2]; Table 2) | IC50 ([3]; Table 2) | Gata2 mRNA [4] | IC50 ([1]; Table 4) | IC50 ([2]; Table 4) | IC50 ([3]; Table 4) | IC50 HDAC3 ([2]; Table 2)
18 | Nc1ccc(-c2ccccc2)cc1NC(=O)c1cnc2c(C3CC3)c(N3CCNCC3)ccc2c1 [N-(4-amino-[1,1′-biphenyl]-3-yl)-8-cyclopropyl-7-(piperazin-1-yl)quinoline-3-carboxamide] | 15 nM | 164 nM | 7.8 nM | – | – | – | – | –
19 | Nc1ccc(-c2ccccc2)cc1NC(=O)c1ccc2c(c1)cc(C1CC1)n2CCN1CCOCC1 [N-(4-amino-[1,1′-biphenyl]-3-yl)-2-cyclopropyl-1-(2-morpholinoethyl)-1H-indole-5-carboxamide] | 70 nM | 689 nM | 15 nM | – | – | – | – | –
20 | COCCOc1cc2ncc(C(=O)Nc3cc(-c4ccccc4)ccc3N)cc2cc1C1CC1 [N-(4-amino-[1,1′-biphenyl]-3-yl)-6-cyclopropyl-7-(2-methoxyethoxy)quinoline-3-carboxamide] | 1560 nM | > 2000 nM | > 2000 nM | – | – | – | – | –
21 | Nc1ccc(-c2cccs2)cc1NC(=O)c1ccc(N2CCNCC2)cc1C1CC1 [Compound 2004] | – | – | – | induction of Gata2 mRNA | 8.9 nM | 207 nM | 11.2 nM | –
22 | Nc1ccc(-c2ccccc2)cc1NC(=O)/C=C/c1ccc(N2CCNCC2)c(C2CC2)c1 [Compound 2001] | – | – | – | induction of Gata2 mRNA | 32.3 nM | 218 nM | 27.3 nM | –
23 | Nc1ccc(-c2ccccc2)cc1NC(=O)c1ccc2nn(CCN3CCOCC3)cc2c1 [N-(4-amino-[1,1′-biphenyl]-3-yl)-2-(2-morpholinoethyl)-2H-indazole-5-carboxamide] | 23 nM | 477 nM | 11 nM | – | – | – | – | –
24 | CN1CCN(C(=O)N2CCC(C)(Nc3ncc(C(=O)Nc4cc(-c5cccs5)ccc4N)cn3)CC2)CC1 [Compound 2009] | – | – | – | – | 31.5 nM | 259 nM | 8.53 nM | –
25 | CN1CCN(c2ccc(C(=O)Nc3cc(-c4ccccc4)ccc3N)cc2C2CC2)CC1 [Compound 2003] | – | – | – | induction of Gata2 mRNA | 79.1 nM | 491 nM | 85 nM | –
26 | CC1(Nc2ncc(C(=O)Nc3cc(-c4cccs4)ccc3N)cn2)CCN(C(=O)N2CCNCC2)CC1 [Compound 2008] | – | – | – | induction of Gata2 mRNA | 25.9 nM | 195 nM | 7.27 nM | –
27 | COCCn1cc(C2CC2)c2cc(C(=O)Nc3cc(-c4ccccc4)ccc3N)ccc21 [N-(4-amino-[1,1′-biphenyl]-3-yl)-3-cyclopropyl-1-(2-methoxyethyl)-1H-indole-5-carboxamide] | > 2000 nM | > 2000 nM | > 2000 nM | – | – | – | – | –
28 | CC1(Nc2ncc(C(=O)Nc3cc(-c4cccs4)ccc3N)cn2)CCN(C(=O)N2CCCC2)CC1 [Compound 2005] | – | – | – | induction of Gata2 mRNA | 14.1 nM | 673 nM | 10.2 nM | –
29 | Nc1ccc(-c2ccccc2)cc1NC(=O)c1ccc2c(cnn2CCN2CCOCC2)c1 [N-(4-amino-[1,1′-biphenyl]-3-yl)-1-(2-morpholinoethyl)-1H-indazole-5-carboxamide] | 19 nM | 344 nM | 7.4 nM | – | – | – | – | –
30 | Nc1ccc(-c2ccccc2)nc1NC(=O)c1cnc2cc(N3CCNCC3)ccc2c1 [N-(3-amino-6-phenylpyridin-2-yl)-7-(piperazin-1-yl)quinoline-3-carboxamide] | 336 nM | 798 nM | 1970 nM | – | – | – | – | –
31 | Nc1ccc(-c2cccs2)cc1NC(=O)c1ccc2nc(N3CCNCC3)cnc2c1 [N-(2-amino-5-(thiophen-2-yl)phenyl)-2-(piperazin-1-yl)quinoxaline-6-carboxamide] | 12 nM | 71 nM | 7 nM | – | – | – | – | –
32 | Nc1ccc(-c2ccccc2)cc1NC(=O)c1cnc2c(C3CC3)c(NCc3ccccc3)ccc2c1 [N-(4-amino-[1,1′-biphenyl]-3-yl)-7-(benzylamino)-8-cyclopropylquinoline-3-carboxamide] | > 2000 nM | – | 652 nM | – | – | – | – | HDAC3 = No inhibition
33 | CC1(Nc2ccc(C(=O)Nc3cc(-c4ccncc4)ccc3N)cc2)CCN(C(=O)N2CCOCC2)CC1 [Compound 2010] | – | – | – | induction of Gata2 mRNA | 16.8 nM | 511 nM | 12 nM | –
34 | Nc1ccccc1NC(=O)c1ccc(N2CCNCC2)cc1C1CC1 [Compound 2006] | – | – | – | – | > 2000 nM | 23 nM | 1400 nM | –
